One assay relates to S. gordonii. Format: cell-based, S. gordonii Challis (DL1). As for the experimental part:
(§1) 1.3 Determination of antimicrobial activity. The general antimicrobial activity of peptides against planktonic bacteria was determined by a MIC assay in TH broth (all oral streptococci) (Qi et al., 2005).
(§2) S. mutans, S. gordonii Challis (DL1), and S. sanguinis NY101 strains were grown in Todd Hewitt (TH, Fisher) broth medium at 37° C. under anaerobic conditions (80% N2, 10% CO2, and 10% H2). S. mutans strains UA159 (Ajdic et al., 2002), ATCC 25175, and T8 (Rogers, 1975), are wild-type clinical isolates, while comD is a knockout mutant that was constructed previously from the wild-type UA140 background (Qi et al., 2005). Luciferase expressing S. mutans strain JM11 was constructed from UA140 as described (Merritt et al., 2005). Exponentially growing bacterial cells were diluted to ˜1×10^5 cfu/mL in TH and placed into 96-well plates (Fisher). Peptides were then serially diluted and added to the bacteria.

Another assay concerns S. mutans. It is filed as cell-based, Streptococcus mutans. Here is the method: as §1, §2
In another assay the test system is S. sanguinis. Format: cell-based, S. sanguinis NY101. As for the experimental part:
as §1, §2

The subject of another assay is P. aeruginosa. As to the kind of experiment: microbe, parasite or virus in culture. It is filed as cell-based, Pseudomonas aeruginosa. As for the experimental part: 2.3 Antimicrobial Activities. The general antimicrobial activities of G10KHc, G10, and tobramycin against clinical isolates of P. aeruginosa were evaluated by minimum inhibitory concentration (MIC) assay as previously described (Eckert et al., 2006) and shown in Table 5. MICs are reported in μM, though for familiarity, 1 μM tobramycin=0.468 μg/mL. P. aeruginosa were grown to log phase and adjusted to ˜1×10^5 cfu/mL in Mueller-Hinton (MH) broth and added to 96-well plates. Two-fold serial dilutions of peptide were then added to bacteria and the plates incubated for 18-24 hours at 37° C. MIC was determined as the concentration of peptide present in the last clear well (no growth). […] In contrast to tobramycin, G10KHc was also effective against aminoglycoside and multiple-antibiotic resistant P. aeruginosa isolated from CF patients (AGR10, MR15). Additionally, as mucoid P. aeruginosa are often associated with reduced susceptibility to antimicrobial agents, we were encouraged to find that G10KHc was active against one such strain, PDO300.

A further assay has as its system S. mutans biofilms. The experiment in a line: Single-species biofilm regrowth after peptide exposure, S. mutans. As to conditions: 25 μM peptide, 1 min exposure. Format: cell-based, Streptococcus mutans. As for the experimental part: (§3) 1.5 Examination of antimicrobial activity against single-species biofilms. To initiate biofilm formation, ˜1×10^7 bacteria per well (from overnight cultures) were seeded in TH medium (100 μL) to a 96-well flat-bottom plate. For all streptococci except S. mutans, the medium was supplemented with 0.5% (w/v) mannose and glucose. S. mutans UA159 biofilms were grown with 0.5% (w/v) sucrose. Plates were then centrifuged briefly to pellet the cells, and bacteria were incubated for 3-4 hours at 37° C. for biofilm formation. After incubation, the supernatant was carefully removed and biofilms were treated with 25 μM peptide in 1×PBS or 1×PBS alone for 1 min. The peptide solution was then removed and 100 μL TH was added to further dilute any remaining peptide. To minimize biofilm loss, cells were briefly centrifuged after TH addition, after which the supernatants were removed and fresh medium plus appropriate sugars were returned. Cells were then incubated anaerobically at 37° C. and biofilm growth was monitored over time by measuring absorbance at OD600 with a microplate spectrophotometer (Benchmark Plus, BioRad).

Another assay relates to S. sanguinis biofilms. The experiment in a line: Single-species biofilm regrowth after peptide exposure, S. sanguinis. Format: cell-based. The note with it: 25 μM peptide, 1 min exposure. Here is the method: as §3
A further assay deals with S. gordonii biofilms. As to the kind of experiment: Single-species biofilm regrowth after peptide exposure, S. gordonii. Format: cell-based. As to conditions: 25 μM peptide, 1 min exposure. As for the experimental part:
as §3

Assay [1] relates to S. mutans JM11 mixed with S. mitis, S. sobrinus, S. gordonii, S. sanguinis. The experiment in a line: Selectivity against multi-species biofilms of oral streptococci. Format: cell-based. Here is the method: Selectivity of STAMPs against multi-species biofilms of oral streptococci. To measure selectivity of STAMPs, mixed biofilms were seeded to 48-well plates. Streptococcus mitis, S. sobrinus, S. gordonii, and S. sanguinis were mixed with S. mutans strain JM11 (spectinomycin resistant) at a 1:1:1:1:10 ratio, total of 10^5 cells/well. Biofilms were grown overnight in TH medium with 1% sucrose, 1% dextrose, and 1% mannose, for 18-24 h. Mature biofilms were treated with PBS plus STAMP as described for the single-species biofilm assay, with the same controls. After treatment, biofilms were washed 2× in PBS and then physically disrupted with a sterile pipette tip in 100 μL PBS per well. Cell suspensions were then serially diluted 10-fold to 10^-6. Diluted suspensions were then plated on TH medium and TH supplemented with spectinomycin, 800 μg/mL. The total amount of biofilm killing (all streptococci) was determined by counting colonies from TH-only plates. Controls: 100% of untreated corresponds to the number of cfu/mL recorded from untreated biofilms, 0% survival was obtained from ethanol sterilized samples. S. mutans killing was determined from quantitating colonies on TH-spectinomycin plates, and combined total cfu/mL, was utilized to calculate the ratio of S. mutans:total population. 1:1 ratio indicates no selectivity.

The test system of another assay is S. mutans UA159 and comD. As to the kind of experiment: Binding of fluorescently labeled peptides to S. mutans (fluorescence microscopy). On the set-up: species or system Streptococcus mutans. The note with it: fluorescently labeled peptide. An excerpt: To determine whether there was a region within the CSPC16 sequence that was responsible for S. mutans-specific binding, we synthesized a series of fluorescently labeled CSPC16 fragments, and analyzed their ability to bind to S. mutans. The following strategies were utilized in dissecting the CSPC16 sequence (Table 2): First, a series of fragments were constructed by generating deletions of 3 or 4 amino acids, from the N to C terminus, across the CSPC16 sequence (C16-1 to C16-5). Peptides lacking larger portions of the C or N termini of CSPC16 were also synthesized (C16-6 to C16-12). Additionally, peptides with Arg to […] (a positive to negative change in charge) (C16-4) or Phe to Gly substitutions (for a general decrease in hydrophobicity) (C16-3), as well as peptides representing a 4-residue Ala scan of the C16 sequence were constructed (C 16-15 to C16-18). […] These peptides include C16 (SEQ ID NO 1), C16-3 (SEQ ID NO 39), C16-4 (SEQ ID NO 40), C16-5 (SEQ ID NO 41), C16-6 (SEQ ID NO 42), C16-11 (SEQ ID NO 47), C16-12 (SEQ ID NO 5), C16-16 (SEQ ID NO 51), C16-17 (SEQ ID NO 52), and C16-18 (SEQ ID NO 53).
1.2 Fluorescent labeling of peptides and fluorescence microscopy. Aliquots of CSPC16 (SEQ ID NO 2), CSP-fragment peptides (Table 2), and C16G2 (SEQ ID NO 4) were labeled with carboxyfluorescein (Sigma) as described previously (Eckert et al., 2006). After peptide cleavage but prior to the bacterial labeling assay, fluorescence intensity per μM peptide was checked fluorimetrically (λex=488 nm, λem=520 nm VersaFluor, BioRad) and found to be relatively similar (data not shown). To evaluate the level of peptide binding to bacteria, streptococci from an overnight culture (OD600 of 0.7-1.0) were washed with phosphate buffered saline (1×PBS), diluted 1:2 into 1×PBS, and exposed to peptide (16 μM) for 5 min at 25° C. After incubation with peptide, unbound agent was removed from the bacteria by three cycles of centrifugation (5 min, 16,000×g) and resuspension in 1×PBS. Labeling of oral streptococci was evaluated using brightfield and fluorescence microscopy (Nikon E400) at a 40× magnification. The digital images utilized for the semi-quantitative binding assessment were acquired with the factory-supplied software (SPOT, Diagnostics).

Read-outs that look alike come from different tables or passages of the source. No end group written: not given here.

Usually MIC stands for the lowest concentration found to suppress growth. A lower MIC goes with a more susceptible organism. For “FKKFWKWFRRF-OH [Peptide S6L3-33, FKKFWKWFRRF]”, the minimum inhibitory concentration (MIC) was 20 ± 5.0 µM with S. gordonii, 7.0 ± 3.0 µM against S. mutans (S. mutans UA159), 6.5 ± 2.5 µM in the assay on S. mutans (S. mutans comD) and 40 ± 7.5 µM against S. sanguinis.
For the substance “KKHRKHRKHRKH (synthetic targeting peptide Cat-1 domain, KH domain)”, in the assay on P. aeruginosa (data not shown), the “antimicrobial activity of targeting domain alone” value is given as “does not have any antimicrobial activity”.
Regarding “KKHRKHRKHRKHGGSGGSKNLRRIIRKGIHIIKKYG [Peptide G10KHc]”, in the assay with P. aeruginosa, the MIC range was 0.5 to 29 µM and the “mean MIC” value came to 6.22 µM.
In the assay with S. mutans (planktonic S. mutans), KLFKFLRKHLL-OH [BD2.21, KLFKFLRKHLL] showed a minimum inhibitory concentration (MIC) of 5.5 µM.
As to “KNLRIIRKGIHIIKKY-NH2 [Peptide G2, KNLRIIRKGIHIIKKY*]”, the MIC in the assay on S. gordonii amounted to 41.3 ± 14.0 µM; in the assay on S. mutans (S. mutans 25175), 14.8 ± 2.0 µM; in the assay with S. mutans (S. mutans T8) it was 14.2 ± 1.5 µM; in the assay on S. mutans (S. mutans UA159), 12.1 ± 4.5 µM; in the assay on S. mutans (S. mutans comD), 15.3 ± 4.2 µM; in the assay with S. sanguinis, 33.6 ± 7.5 µM. In addition, the results for the “biofilm re-growth after treatment (OD600)” value (shortened to “biofilm re-growth”) with S. mutans biofilms, in the assay on S. sanguinis biofilms and in the assay with S. gordonii biofilms were “unaffected”, “grew similarly to untreated biofilms” and “grew similarly to untreated biofilms”, respectively.
As to “NIFEYFLEGGGKLFKFLRKHLL (synthetic selectively/specifically targeted antimicrobial peptide (STAMP) chimeric polypeptide 1903-BD2.21)”, in assay [1] (multi-species biofilm, 20 min), the “impact on total cfu/mL population / other oral streptococci (in words)” value is recorded as “some impact on other oral streptococci” and the “reduction of total population” value was “about 30%”.
For “SGSLSTFFRLFNRSFTQALGK-OH [CSP, reference compound]”, the minimum inhibitory concentration (MIC) against S. gordonii (S. gordonii) is over 60 µM; in the assay on S. mutans (S. mutans 25175), over 60 µM; in the assay on S. mutans (S. mutans T8), over 60 µM; against S. mutans (S. mutans UA159), 50.8 ± 9.3 µM; with S. mutans (S. mutans comD), over 60 µM; against S. sanguinis (S. sanguinis), over 60 µM. Besides, the “biofilm re-growth” value in the assay on S. mutans biofilms was “unaffected”; in the assay with S. sanguinis biofilms, “grew similarly to untreated biofilms”; in the assay on S. gordonii biofilms, “grew similarly to untreated biofilms”.
In the case of “TFFRAAAASFTQALGK (synthetic competence stimulating peptide (CSP) fragment peptide C16-16 with 4-residue Ala scan)”, the “binding to S. mutans (in words)” value in the assay with S. mutans UA159 and comD is recorded as “binding but at a weaker intensity than CSPC16”.
As to “TFFRL (synthetic competence stimulating peptide (CSP) fragment peptide C16-11 with C-terminal deletion)”, the “binding to S. mutans (in words)” value in the assay with S. mutans UA159 and comD is “binding but at a weaker intensity than CSPC16”.
As to “TFFRLFNRAAAAALGK (synthetic competence stimulating peptide (CSP) fragment peptide C16-17 with 4-residue Ala scan)”, the “binding to S. mutans (in words)” value in the assay on S. mutans UA159 and comD is on record as “binding but at a weaker intensity than CSPC16”.
Turning to “TFFRLFNRGGGKNLRIIRKGIHIIKKY-NH2 [Peptide M8G2]”, the MIC came to 20 ± 5.0 µM against S. gordonii; 3.5 ± 0.5 µM in the assay on S. mutans (S. mutans 25175); 3.25 ± 1.9 µM in the assay on S. mutans (S. mutans UA159); 4.0 ± 2.0 µM in the assay with S. mutans (S. mutans comD); 15 ± 2.5 µM in the assay with S. sanguinis. For the same substance, the figures for the “biofilm re-growth” value with S. mutans biofilms and in the assay on S. sanguinis biofilms were “capable of inhibiting the recovery of S. mutans biofilms” and “not those of S. sanguinis”, respectively.
As for “TFFRLFNRSFTQALGKGGGKLFKFLRKHLL (synthetic selectively/specifically targeted antimicrobial peptide (STAMP) chimeric polypeptide C16-BD2.21)”, the “ratio of surviving S. mutans to total Streptococci” value in assay [1] (1:1 ratio indicates no selectivity) amounted to 0.075. Also, the “impact on total cfu/mL population / other oral streptococci (in words)” value in assay [1] (multi-species biofilm, 20 min) is reported as “no impact on the total cfu/mL population”.
For the substance “TFFRLFNRSGGGFKKFWKWFRRF-OH [Peptide M8-33]”, the MIC is 10 ± 2.5 µM against S. gordonii, 2.5 ± 2.0 µM against S. mutans (S. mutans UA159), 2.5 ± 2.0 µM against S. mutans (S. mutans comD) and 20 ± 2.0 µM in the assay with S. sanguinis. For the same substance, the “biofilm re-growth” value is reported as “capable of retarding S. mutans biofilm growth” in the assay on S. mutans biofilms and “not affected” with S. sanguinis biofilms.
With “TFFRLFTQALGK (synthetic competence stimulating peptide (CSP) fragment peptide C16-3 with internal deletion)”, the “binding to S. mutans (in words)” value in the assay on S. mutans UA159 and comD is “binding but at a weaker intensity than CSPC16”.
As for “TRRRLFNRSFTQALGKSGGGFKKFWKWFRRF-OH [Peptide C16-33]”, the minimum inhibitory concentration (MIC) against S. gordonii was 14.6 ± 5.0 µM; in the assay with S. sanguinis, 13.3 ± 5.8 µM. The “biofilm re-growth” value is reported as “capable of retarding S. mutans biofilm growth” with S. mutans biofilms and “not affected” in the assay on S. sanguinis biofilms.

These data come from patent US8680058B2, “Selectively targeted antimicrobial peptides and the use thereof” (priority 2006, dated 2014).
